Experimental data as given in patent US9862717B2 (Merck Patent GmbH, priority 2014, dated 2018).

The compounds below were run against T1, CDK8/CycC (Homo sapiens, UniProt P49336) (assay: FRET based Lanthascreen binding competition assay for CDK8 inhibitory activity). Details: CDK8 co-expressed with CycC; class symbols.
T1 construct: purchased Invitrogen PV4402
Procedure, shortened: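 Competition binding of a dye-labeled ATP-competitive Alexa647 probe to CDK8 co-expressed with CycC, Eu-labeled via biotinylated anti-His antibody/streptavidin.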

T1 sequence (P49336 whole entry): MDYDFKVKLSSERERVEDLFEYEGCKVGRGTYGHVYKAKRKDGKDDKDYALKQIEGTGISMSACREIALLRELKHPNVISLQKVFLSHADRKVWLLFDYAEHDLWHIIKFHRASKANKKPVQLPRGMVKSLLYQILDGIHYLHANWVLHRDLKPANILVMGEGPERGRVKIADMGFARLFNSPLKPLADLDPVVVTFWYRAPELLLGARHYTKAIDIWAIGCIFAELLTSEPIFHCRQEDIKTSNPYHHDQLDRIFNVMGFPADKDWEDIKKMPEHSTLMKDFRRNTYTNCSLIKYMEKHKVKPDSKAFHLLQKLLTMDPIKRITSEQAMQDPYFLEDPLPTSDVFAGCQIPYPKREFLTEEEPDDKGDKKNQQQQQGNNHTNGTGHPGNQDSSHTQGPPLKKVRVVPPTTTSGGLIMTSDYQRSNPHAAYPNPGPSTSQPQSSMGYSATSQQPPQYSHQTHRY
T1 sequence (P24863 whole entry partner): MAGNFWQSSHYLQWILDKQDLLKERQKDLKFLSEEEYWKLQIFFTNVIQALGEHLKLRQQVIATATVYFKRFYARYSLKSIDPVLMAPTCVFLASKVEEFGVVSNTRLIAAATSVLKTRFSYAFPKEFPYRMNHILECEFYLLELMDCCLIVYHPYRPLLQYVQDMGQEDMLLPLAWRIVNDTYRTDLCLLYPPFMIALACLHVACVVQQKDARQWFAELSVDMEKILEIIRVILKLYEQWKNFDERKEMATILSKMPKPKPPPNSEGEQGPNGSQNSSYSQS

For Cc1n[nH]c2ncc(C(=O)N3CCCC3c3ccccc3OCC(F)(F)F)cc12 (stereo not drawn) [compound 162, (3-Methyl-1H-pyrazolo[3,4-b]pyridin-5-yl)-{2-[2-(2,2,2-trifluoro-ethoxy)-phenyl]-pyrrolidin-1-yl}-methanone], the IC50 was 0.1 to 1 µM.

Same assay, conditions: CDK8 co-expressed with CycC; class symbols; read-out: IC50

Compared with Cc1n[nH]c2ncc(C(=O)N3CCCCC[C@H]3c3cccc(F)c3)cc12 [compound 150, [(S)-2-(3-Fluoro-phenyl)-azepan-1-yl]-(3-methyl-1H-pyrazolo[3,4-b]pyridin-5-yl)-methanone], Cc1n[nH]c2ncc(C(=O)N3CCCC3c3ccc(Cl)c(F)c3)cc12 (stereo not drawn) [compound 179, [2-(4-Chloro-3-fluoro-phenyl)-pyrrolidin-1-yl]-(3-methyl-1H-pyrazolo[3,4-b]pyridin-5-yl)-methanone] is lower in IC50: 0.1 to 1 µM for the first, 0.01 to 0.1 µM for the second. The second is the more potent here.

First: O=C(c1cnc2[nH]nc(C3CC3)c2c1)N1CCC[C@H]1c1ccc(Cl)cc1 [compound 152, [(S)-2-(4-Chloro-phenyl)-pyrrolidin-1-yl]-(3-cyclopropyl-1H-pyrazolo[3,4-b]pyridin-5-yl)-methanone]
Second: O=C(c1cnc2[nH]nc(C3CC3)c2c1)N1CCC[C@@H]1c1ccc(Cl)cc1 [compound 153, [(R)-2-(4-Chloro-phenyl)-pyrrolidin-1-yl]-(3-cyclopropyl-1H-pyrazolo[3,4-b]pyridin-5-yl)-methanone]
The IC50 of the first is lower: under 0.01 µM for the first, 0.1 to 1 µM for the second. The first is the more potent here.

First: Cc1n[nH]c2ncc(C(=O)N3CCC[C@H]3c3ccc(C(F)(F)F)cc3)cc12 [compound 157, (3-Methyl-1H-pyrazolo[3,4-b]pyridin-5-yl)-[(S)-2-(4-trifluoromethyl-phenyl)-pyrrolidin-1-yl]-methanone]
Second: Cc1n[nH]c2ncc(C(=O)N3CCC(C)C3c3ccc(C(F)(F)F)cc3)cc12 (stereo not drawn) [compound 159, (3-Methyl-1H-pyrazolo[3,4-b]pyridin-5-yl)-[3-methyl-2-(4-trifluoromethyl-phenyl)-pyrrolidin-1-yl]-methanone]
The IC50 of the first is lower: under 0.01 µM for the first, 0.01 to 0.1 µM for the second.

Compared with Cc1n[nH]c2ncc(C(=O)N3CC(C)CC3c3ccc(C(F)(F)F)cc3)cc12 (stereo not drawn) [compound 160, (3-Methyl-1H-pyrazolo[3,4-b]pyridin-5-yl)-[4-methyl-2-(4-trifluoromethyl-phenyl)-pyrrolidin-1-yl]-methanone], Cc1n[nH]c2ncc(C(=O)N3CC[C@@H](C)[C@H]3c3ccc(C(F)(F)F)cc3)cc12 [compound 172, (3-Methyl-1H-pyrazolo[3,4-b]pyridin-5-yl)-[(2S,3R)-3-methyl-2-(4-trifluoromethyl-phenyl)-pyrrolidin-1-yl]-methanone] is lower in IC50: 0.1 to 1 µM for the first, under 0.01 µM for the second. The second is the more potent here.

Compared with Nc1n[nH]c2ccc(C(=O)N3CCCC3c3ccc(Cl)c(F)c3)cc12 (stereo not drawn) [compound 167, (3-Amino-1H-indazol-5-yl)-[2-(4-chloro-3-fluoro-phenyl)-pyrrolidin-1-yl] methanone], CC(C)c1ccc([C@@H]2CCCN2C(=O)c2ccc3[nH]nc(N)c3c2)cc1 [compound 194, (3-Amino-1H-indazol-5-yl)-[(S)-2-(4-isopropyl-phenyl)-pyrrolidin-1-yl]-methanone] is lower in IC50: 0.01 to 0.1 µM for the first, under 0.01 µM for the second.

O=C(c1cnc2[nH]nc(C3CC3)c2c1)N1CCCCC1c1ccccc1 (stereo not drawn) [compound 168, (3-Cyclopropyl-1H-pyrazolo[3,4-b]pyridin-5-yl)-(2-phenyl-piperidin-1-yl)-methanone] and O=C(c1cnc2[nH]nc(C(F)(F)F)c2c1)N1CCCCC1c1ccccc1 (stereo not drawn) [compound 169, (2-Phenyl-piperidin-1-yl)-(3-trifluoromethyl-1H-pyrazolo[3,4-b]pyridin-5-yl)-methanone] fall in the same range of IC50: 0.1 to 1 µM for the first, 0.1 to 1 µM for the second.

Cc1n[nH]c2ncc(C(=O)N3CC[C@@H]3c3ccc(F)cc3)cc12 [compound 175, [(R)-2-(4-Fluoro-phenyl)-azetidin-1-yl]-(3-methyl-1H-pyrazolo[3,4-b]pyridin-5-yl)-methanone] and Cc1n[nH]c2ncc(C(=O)N3CCC3c3ccc(F)cc3)cc12 (stereo not drawn) [compound 200, [2-(4-Fluoro-phenyl)-azetidin-1-yl]-(3-methyl-1H-pyrazolo[3,4-b]pyridin-5-yl)-methanone] fall in the same range of IC50: 0.1 to 1 µM for the first, 0.1 to 1 µM for the second.

Cc1n[nH]c2ncc(C(=O)N3CCNC(c4ccccc4)C3)cc12 (stereo not drawn) [compound 182, (3-Methyl-1H-pyrazolo[3,4-b]pyridin-5-yl)-(3-phenyl-piperazin-1-yl)-methanone] and Cc1n[nH]c2ncc(C(=O)N3CC[C@](O)(c4ccccc4)C3)cc12 [compound 198, ((S)-3-Hydroxy-3-phenyl-pyrrolidin-1-yl)-(3-methyl-1H-pyrazolo[3,4-b]pyridin-5-yl)-methanone] fall in the same range of IC50: 1 to 10 µM for the first, 1 to 10 µM for the second.

O=C(c1cnc2[nH]nc(C(F)(F)F)c2c1)N1CCCC[C@@H]1c1ccccc1 [compound 183, ((R)-2-Phenyl-piperidin-1-yl)-(3-trifluoromethyl-1H-pyrazolo[3,4-b]pyridin-5-yl)-methanone] and O=C(c1cnc2[nH]nc(C(F)(F)F)c2c1)N1CCCC[C@H]1c1ccccc1 [compound 184, ((S)-2-Phenyl-piperidin-1-yl)-(3-trifluoromethyl-1H-pyrazolo[3,4-b]pyridin-5-yl)-methanone] fall in the same range of IC50: 0.1 to 1 µM for the first, 0.1 to 1 µM for the second.

Compared with Cc1n[nH]c2ncc(C(=O)N3C[C@@H](C(N)=O)[C@H](c4ccc(Cl)cc4)C3)cc12 [compound 185, (3S,4R)-4-(4-Chloro-phenyl)-1-(3-methyl-1H-pyrazolo[3,4-b]pyridine-5-carbonyl)-pyrrolidine-3-carboxylic acid amide], Cc1n[nH]c2ncc(C(=O)N3C[C@H](C(N)=O)[C@@H](c4ccc(Cl)cc4)C3)cc12 [compound 186, (3R,4S)-4-(4-Chloro-phenyl)-1-(3-methyl-1H-pyrazolo[3,4-b]pyridine-5-carbonyl)-pyrrolidine-3-carboxylic acid amide] is lower in IC50: 1 to 10 µM for the first, 0.1 to 1 µM for the second.

First: Cc1n[nH]c2ncc(C(=O)N3CCCC3c3ccc(Cl)c(Cl)c3)cc12 (stereo not drawn) [compound 188, [2-(3,4-Dichloro-phenyl)-pyrrolidin-1-yl]-(3-methyl-1H-pyrazolo[3,4-b]pyridin-5-yl)-methanone]
Second: Cc1n[nH]c2ncc(C(=O)N3CCC[C@H]3c3ccc(C(C)C)cc3)cc12 [compound 196, [(S)-2-(4-Isopropyl-phenyl)-pyrrolidin-1-yl]-(3-methyl-1H-pyrazolo[3,4-b]pyridin-5-yl)-methanone]
The IC50 of the first is higher: 0.01 to 0.1 µM for the first, under 0.01 µM for the second. The second is the more potent here.

Compared with CC(C)c1ccc([C@H]2CCCN2C(=O)c2ccc3[nH]nc(N)c3c2)cc1 [compound 195, (3-Amino-1H-indazol-5-yl)-[(R)-2-(4-isopropyl-phenyl)-pyrrolidin-1-yl]-methanone], Nc1n[nH]c2ccc(C(=O)N3CCC[C@H]3c3ccc(C(F)(F)F)cc3)cc12 [compound 208, (3-Amino-1H-indazol-5-yl)-[(S)-2-(4-trifluoromethyl-phenyl)-pyrrolidin-1-yl]-methanone] is lower in IC50: 0.1 to 1 µM for the first, 0.01 to 0.1 µM for the second. The second is the more potent here.

First: Cc1n[nH]c2ncc(C(=O)N3CCC[C@@H]3c3ccc(C(C)C)cc3)cc12 [compound 197, [(R)-2-(4-Isopropyl-phenyl)-pyrrolidin-1-yl]-(3-methyl-1H-pyrazolo[3,4-b]pyridin-5-yl)-methanone]
Second: Cc1n[nH]c2cc(F)c(C(=O)N3CCC[C@@H]3c3ccc(Cl)cc3)cc12 [compound 203, [(R)-2-(4-Chloro-phenyl)-pyrrolidin-1-yl]-(6-fluoro-3-methyl-1H-indazol-5-yl)-methanone]
The IC50 of the first is lower: 0.1 to 1 µM for the first, 1 to 10 µM for the second. The first is the more potent here.

First: Cc1n[nH]c2ccc(C(=O)N3CC[C@H]3c3ccc(F)cc3)cc12 [compound 204, [(S)-2-(4-Fluoro-phenyl)-azetidin-1-yl]-(3-methyl-1H-indazol-5-yl)-methanone]
Second: Cc1n[nH]c2ccc(C(=O)N3CC[C@@H]3c3ccc(F)cc3)cc12 [compound 207, [(R)-2-(4-Fluoro-phenyl)-azetidin-1-yl]-(3-methyl-1H-indazol-5-yl)-methanone]
The IC50 of the first is lower: under 0.01 µM for the first, 0.01 to 0.1 µM for the second. The first is the more potent here.

Cc1n[nH]c2cc(F)c(C(=O)N3CCC[C@H]3c3ccc(Cl)cc3)cc12 [compound 206, [(S)-2-(4-Chloro-phenyl)-pyrrolidin-1-yl]-(6-fluoro-3-methyl-1H-indazol-5-yl)-methanone] and CSc1n[nH]c2ccc(C(=O)N3CCC[C@H]3c3ccc(Cl)cc3)cc12 [compound 210, [(S)-2-(4-Chloro-phenyl)-pyrrolidin-1-yl]-(3-methylsulfanyl-1H-indazol-5-yl)-methanone] cannot be ordered by IC50: under 0.01 µM for the first, under 0.01 µM for the second.

Nc1n[nH]c2ccc(C(=O)N3CCC[C@@H]3c3ccc(C(F)(F)F)cc3)cc12 [compound 209, (3-Amino-1H-indazol-5-yl)-[(R)-2-(4-trifluoromethyl-phenyl)-pyrrolidin-1-yl]-methanone] and COC(=O)C1CCN(C(=O)c2cnc3[nH]nc(C)c3c2)C(c2ccccc2)C1 (stereo not drawn) [compound 211, 1-(3-Methyl-1H-pyrazolo[3,4-b]pyridine-5-carbonyl)-2-phenyl-piperidine-4-carboxylic acid methyl ester] fall in the same range of IC50: 0.1 to 1 µM for the first, 0.1 to 1 µM for the second.

Cc1n[nH]c2ncc(C(=O)N3CCO[C@@](C)(c4ccc(Cl)cc4)C3)cc12 [compound 214, [(S)-2-(4-Chloro-phenyl)-2-methyl-morpholin-4-yl]-(3-methyl-1H-pyrazolo[3,4-b]pyridin-5-yl)-methanone] gave an IC50 of 1 to 10 µM.

Same assay, conditions: IC50 [μM], CDK8 co-expressed with CycC; class symbols

Compared with O=C(c1ccc2[nH]ncc2c1)N1CCC[C@H]1c1ccc(Br)cc1 [compound 156], Cc1n[nH]c2ccc(C(=O)N3CC[C@H]3c3ccc(Cl)cc3)cc12 [compound 202, [(S)-2-(4-Chloro-phenyl)-azetidin-1-yl]-(3-methyl-1H-indazol-5-yl)-methanone] is lower in IC50: 0.01 to 0.1 µM for the first, under 0.01 µM for the second. The second is the more potent here.

Compared with Cc1n[nH]c2ccc(C(=O)N3CCOCC3c3ccc(Cl)cc3)cc12 (stereo not drawn) [compound 178], Cc1n[nH]c2ccc(C(=O)N3CC[C@@H]3c3ccc(Cl)cc3)cc12 [compound 205, [(R)-2-(4-Chloro-phenyl)-azetidin-1-yl]-(3-methyl-1H-indazol-5-yl)-methanone] is higher in IC50: under 0.01 µM for the first, 0.1 to 1 µM for the second. The first is the more potent here.

With Cc1n[nH]c2cnc(C(=O)N3CCC[C@H]3c3ccc(Cl)cc3)cc12 [compound 190, [(S)-2-(4-Chloro-phenyl)-pyrrolidin-1-yl]-(3-methyl-1H-pyrazolo[3,4-c]pyridin-5-yl)-methanone] the IC50 was 0.01 to 0.1 µM.
